In patent US7109215B2, “Compounds possessing neuronal activity” (Vertex Pharmaceuticals Incorporated, priority 1997, dated 2006):
Marks after values point to notes of the source that are not given here.

Tests used:
FKBP = FKBP (Homo sapiens, UniProt P62942); experiment: Rotamase inhibition assay (chymotrypsin-coupled PPIase assay); format: biochemical; conditions: 15 nM FKBP, 30 μM Suc-Ala-Leu-Pro-Phe-pNA, 15° C.
Description: Inhibition of FKBP enzyme activity was determined in the PPIase assay described in S. T. Park et al., J. Biol. Chem., 267, pp. 3316–24 (1992), the disclosure of which is herein incorporated by reference. This is a chymotrypsin-coupled assay in which FKBP catalyzes the cis to trans isomerization of the Leu-Pro bond in the peptide substrate Suc-Ala-Leu-Pro-Phe-pNA. The trans form, but not the cis form, is cleavable by chymotrypsin. The release Phe-pNA was monitored by absorbance at 400 nm. Chymotrypsyn cleavage is very rapid and therefore cis-to-trans isomerization is rate-limiting.
Each reaction mix consisted of 0.1 M Tris buffer, pH 7.8, 15 nM FKBP, 30 μM substrate and 0.5 nM to 10 μM of compound to be tested diluted in Me2SO. The mixture was incubated at 15° C. for 5 minutes and then reaction was initiated by addition of chymotrypsin (100 μg/ml final concentration) and followed spectrophotometrically for 5 minutes. Total reaction volume was 1 ml.

HL60/Vinc cells = experiment: MDR sensitization (reversal) assay, doxorubicin, XTT viability; format: cell-based, human; conditions: compound 2.5 μM, IC50 doxorubicin alone / IC50 doxorubicin plus compound
Description: (§1) We carried out multidrug resistance reversal (MDR) assays using L1210vMDRC.06 or HL60/Vinc cell lines. L1210vMDRC.06 are L1210 mouse leukemia cells transduced with the pHaMDR1/A retrovirus carrying a MDR1 cDNA, as described by Pastan et al., Proc. Natl. Acad. Sci. USA, 85, pp. 4486–4490 (1988). The L1210vMDRC.06 multidrug resistant line is a cell line that has been drug-selected by culturing transfected cells in 0.06 μg/ml colchicine. The HL60/Vinc human promyleocytic leukemia cell line is a multidrug resistant cell line derived from HL60 drug-sensitive parental cells by selection in increasing concentrations of vincristine.
Assays using HL60/Vinc cells were performed by plating cells in 96 well microtiter plates at a concentration of 4×10^4 cells/well. The cells were then exposed to various concentrations of doxorubicin (9 nM to 6.7 μM) in the presence or absence of various compounds of this invention at various concentrations (0.5, 1.0, 2.5, 5.0 or 10 μM) as described in U. Germann et al., Anti-Cancer Drugs, 8, pp. 141–155 (1997). After culturing the cells for 3 days, their viability was quantitated using the XTT dye method to assess mitochondrial function (Roehm et al., supra). Results were expressed as a ratio of the IC50 for doxorubicin alone to the IC50 for doxorubicin plus compound. In all assays the intrinsic antiproliferative or cytotoxicity activity of the MDR inhibitors was also determined for HL60/Vinc cells.

[1] = tested on: pheochromocytoma PC12 cells; experiment: Neurite outgrowth quantitation in PC12 cell system; format: cell-based, rat; conditions: for Neurite outgrowth, visual scale of 0 to 4: 1–5 ng/ml NGF, 72 hours
Description: In order to directly determine the neurotrophic activity of compounds described in this invention, the neurite outgrowth assay was carried out with pheochromocytoma PC12 cells as described by Lyons et al. (1994).
PC12 cells were maintained at 37° C. and 5% CO2 in Dulbecco's modified Eagle's medium (DMEM) supplemented with 10% heat-inactivated horse serum, 5% heat-inactivated fetal bovine serum (FBS), and 1% glutamate.
The cells were then plated at […] in 96 well plates coated with […] rat tail collagen and allowed to attach overnight. The medium was then replaced with DMEM, 2% heat-inactivated horse serum, 1% glutamate, 1–5 ng/ml of NGF (Sigma) and varying concentrations of the compounds of this invention (0.01 nM–10000 nM). The background control culture was administered with […] of NGF alone without compound. Positive control cultures were administered with high concentration of NGF (50 ng/ml). The cells were then incubated at 37° C. at 5% CO2 for 72 hours, fixed with 3% formaldehyde and nerve outgrowth was determined visually on a scale of 0 to 4.

L1210vMDRC.06 cells = experiment: MDR sensitization (reversal) assay, doxorubicin, XTT viability; format: cell-based, mouse; conditions: compound 2.5 μM, IC50 Dox/IC50 Dox+Inhibitor
Description: as §1
Using L1210vMDRC.06, multidrug resistance reversal assays were conducted by plating 1×10^4 cells/well in 96 well microtiter plates and exposing them to a concentration range of doxorubicin (50 nM–10 μM) in the presence or absence of compounds of this invention (0.1, 0.25, 0.5, 1.0, or 2.5 μM) as described in U. Germann et al., Anti-Cancer Drugs, 8, pp. 125–140 (1997). After culture for 3 days, the viability of cells was quantitated using XTT dye to assess mitochondrial function [Roehm et al., J. Immunol. […] Results were determined by comparison of the IC50 for doxorubicin alone to the IC50 for doxorubicin+compound. An MDR ratio was calculated (IC50 Dox/IC50 Dox+Inhibitor) and the integer value used for comparison of compound potencies.

Sequence of FKBP (P62942 whole entry): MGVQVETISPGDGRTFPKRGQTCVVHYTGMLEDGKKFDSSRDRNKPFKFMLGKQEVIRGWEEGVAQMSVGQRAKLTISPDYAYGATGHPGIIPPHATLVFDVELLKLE

Ki (FKBP) [µM] | Structure (SMILES) | MDR Ratio (HL60/Vinc cells) | Neurite outgrowth, visual scale of 0 to 4 ([1]; compound 10 nM) | Neurite outgrowth, visual scale of 0 to 4 ([1]; compound 100 nM) | Neurite outgrowth, visual scale of 0 to 4 ([1]; compound 1000 nM) | MDR Ratio (L1210vMDRC.06 cells) | Neurite outgrowth over background control cultures (in words) ([1]; PC12 assay)
> 25 | CNC(Cc1ccccc1)C(=O)N(C)CCCc1cccnc1 (stereo not shown) [Compound 108] | 0.4 | 0 | 3 | 0 | – | –
> 50 | CC(C)CN1CCCCC1C(=O)OC(CCCc1ccncc1)CCCc1cccnc1 (stereo not shown) [Compound 112] | 2.4 | 3* | 4* | 3* | – | –

The next lines start with the compound.

Structure (SMILES) | Ki (FKBP) [µM] | MDR Ratio (HL60/Vinc cells) | Neurite outgrowth, visual scale of 0 to 4 ([1]; compound 10 nM) | Neurite outgrowth, visual scale of 0 to 4 ([1]; compound 100 nM) | Neurite outgrowth, visual scale of 0 to 4 ([1]; compound 1000 nM) | MDR Ratio (L1210vMDRC.06 cells) | Neurite outgrowth over background control cultures (in words) ([1]; PC12 assay)
CN(CCc1ccccn1)C(=O)C1CCCCN1 (stereo not shown) [Compound 106] | > 50 | 1.2 | – | 1* | 2* | – | –
COc1cc(C(=O)CN2CCCCC2C(=O)OC(CCCc2cccnc2)CCCc2cccnc2)cc(OC)c1OC (stereo not shown) [Compound 105] | – | – | 4 | 4 | 0 | 10 | –
O=C(NCc1cccnc1)C1CCCCN1 (stereo not shown) [Compound 103] | > 50 | 0.7 | 0 | 0 | 0 | – | Negative results
COc1ccc(S(=O)(=O)N(C)[C@@H](Cc2ccccc2)C(=O)N(C)C(CCCc2cccnc2)CCCc2cccnc2)cc1 [Compound 18] | > 50 | 10.8 | 3* | 4* | 4* | – | –
CN(CCCc1cccnc1)C(=O)[C@@H]1CCCCN1S(=O)(=O)c1ccc(N)cc1 [Compound 3] | > 50 | 0.6 | 2*** | 4*** | 4*** | – | –
